Assay results reported in the NIST ThermoML archive (doi:10.1016/j.fluid.2005.10.023).
± gives the expanded uncertainty stated by the source.

Test: xn = mol fraction of the nth substance listed
Conditions: Gas, Other PVT measurement

CCCCCC [hexane] + O=C=O
mass density [kg/m3]
Conditions	x1 = 0.0373	x1 = 0.0471	x1 = 0.052	x1 = 0.0618
323.15 K	355 ± 21	451 ± 20	477 ± 20	–
328.15 K	294 ± 21	396 ± 20	423 ± 20	436 ± 20
333.15 K	249 ± 20	343 ± 20	378 ± 20	392 ± 20

C=Cc1ccccc1 [styrene] + O=C=O
mass density [kg/m3]
Conditions	x1 = 0.0182	x1 = 0.0256	x1 = 0.03	x1 = 0.0343	x1 = 0.0393	x1 = 0.0476
323.15 K	479 ± 20	494 ± 20	521 ± 20	–	–	–
328.15 K	450 ± 20	471 ± 20	499 ± 20	529 ± 20	547 ± 20	580 ± 20
333.15 K	430 ± 20	453 ± 20	479 ± 20	507 ± 20	527 ± 20	560 ± 20

CCCCCl [1-chlorobutane] + O=C=O
mass density [kg/m3]
Conditions	x1 = 0.0257	x1 = 0.03	x1 = 0.0363	x1 = 0.04	x1 = 0.0497
323.15 K	347 ± 20	386 ± 20	442 ± 20	468 ± 20	–
328.15 K	300 ± 20	343 ± 20	390 ± 20	407 ± 20	467 ± 20
333.15 K	–	286 ± 20	345 ± 20	380 ± 20	419 ± 20

Clc1ccccc1 [chlorobenzene] + O=C=O
mass density [kg/m3]
Conditions	x1 = 0.024	x1 = 0.0293	x1 = 0.0352	x1 = 0.04	x1 = 0.0482	x1 = 0.204
323.15 K	471 ± 20	507 ± 20	–	–	–	437 ± 20
328.15 K	441 ± 20	481 ± 20	516 ± 20	534 ± 20	–	406 ± 20
333.15 K	417 ± 20	458 ± 20	493 ± 20	516 ± 20	556 ± 20	386 ± 20
